In patent US11485751B2, “Apramycin derivatives” (WAYNE STATE UNIVERSITY, priority 2017, dated 2022):
pIC50: −log10 of the molar value. Converted amounts (≈) assume the structure as drawn. Read-outs that look alike come from different tables or passages of the source.

Legend:
[1] = test system: AG039 MRSA AAC(6′)-I ANT(4′)-I; test: Antibacterial activity, clinical isolate AG039; type: cell-based
Text: (§1) Minimal inhibitory concentrations (MIC) have been determined by broth microdilution assays (CLSI. Methods for Dilution Antimicrobial Susceptibility Tests for Bacteria That Grow Aerobically; Approved Standard—Tenth Edition. CLSI document M07-A10. Wayne, Pa.: Clinical and Laboratory Standards Institute; 2015.).
(§2) Table 4 and 5 show the antibacterial activity of the compounds of the invention against bacterial reference strains (table 4) and against representative clinical isolates (table 5).

[2] = test system: AG212, Escherichia coli ATCC25922; test: MIC reference strain AG212; type: cell-based; conditions: for MIC: Escherichia coli
Text: as §1, §2
(§3) Legend to Tables: GEN, gentamicin; AMK, amikacin; PLZ, plazomicin; APR, apramycin; AG212, Escherichia coli ATCC25922; AG215, Klebsiella pneumonia; AG220, Pseudomonas aeruginosa ATCC27853; AG225, Acinetobacter baumannii pittii; AG290, Enterobacter cloacae; […], Mycobacterium smegmatis. MICs for AG192 have been determined in the presence of 0.5 μg/mL of ampicillin in the medium to mimic the synergistic effect of aminoglycoside and β-lactam antibiotics combination therapy in the treatment of Enterococcus infections in humans.

[3] = test system: AG220, Pseudomonas aeruginosa ATCC27853; test: MIC reference strain AG220; type: cell-based; conditions: for MIC: Pseudomonas aeruginosa
Text: as §1, §2, §3

[4] = test system: AG032 P. aer. APH(3′)-II; test: Antibacterial activity, clinical isolate AG032; type: cell-based; parameters: unit not given here
Text: as §1, §2

[5] = test system: AG031 P. aer. APH(3′)-II; test: Antibacterial activity, clinical isolate AG031; type: cell-based; parameters: unit not given here
Text: as §1, §2

[6] = test system: E. coli AG153 AAC(3)-II APH(3′)-II rmtB; test: Activity against G1405-methylated 16S-rRNA, clinical isolate AG153; type: cell-based; parameters: unit not given here
Text: as §1

[7] = test system: AG225, Acinetobacter baumannii pittii; test: MIC reference strain AG225; type: cell-based; conditions: for MIC: Acinetobacter baumannii, read-out: MIC AG225 A. baumannii
Text: as §1, §2, §3

[8] = test system: AG033 P. aer. APH(3′)-II AAC(6′)-I; test: Antibacterial activity, clinical isolate AG033; type: cell-based; parameters: unit not given here
Text: as §1, §2

[9] = test system: AG215, Klebsiella pneumonia; test: MIC reference strain AG215; type: cell-based; conditions: for MIC: Klebsiella pneumoniae, read-out: MIC AG215 K. pneumonia
Text: as §1, §2, §3

[10] = test system: AG038 MRSA; test: Antibacterial activity, clinical isolate AG038; type: cell-based; parameters: unit not given here
Text: as §1, §2

[11] = test system: Engineered E. coli pH430 WT; test: Activity, engineered E. coli pH430 WT; type: cell-based; parameters: unit not given here; conditions: wild type
Text: as §1

[12] = test system: ATCC19977 M. abcessus; test: MIC reference strain ATCC19977; type: cell-based; conditions: for MIC: read-out: MIC ATCC19977 M. abcessus
Text: as §1, §2

[13] = test system: Engineered E. coli pH426 rmtC; test: Activity against G1405-methylated 16S-rRNA, E. coli pH426 rmtC; type: cell-based
Text: as §1

[14] = test system: Engineered E. coli pH427 rmtF; test: Activity against G1405-methylated 16S-rRNA, E. coli pH427 rmtF; type: cell-based
Text: as §1

[15] = test system: AG290, Enterobacter cloacae; test: MIC reference strain AG290; type: cell-based; conditions: for MIC: Enterobacter cloacae, read-out: MIC AG290 E. cloacae
Text: as §1, §2, §3

[16] = test system: K. pneum. AG269 AAC(3)-II AAC(6′)-I rmtB; test: Activity against G1405-methylated 16S-rRNA, clinical isolate AG269; type: cell-based
Text: as §1

[17] = test system: AG042 MRSA AAC(6′)-I ANT(4′)-I APH(2′); test: Antibacterial activity, clinical isolate AG042; type: cell-based; parameters: unit not given here
Text: as §1, §2

[18] = test system: Enterob. AG302 AAC(3)-II AAC(6′)-I rmtC; test: Activity against G1405-methylated 16S-rRNA, clinical isolate AG302; type: cell-based
Text: as §1

[19] = test system: Engineered E. coli pH425 rmtB; test: Activity against G1405-methylated 16S-rRNA, E. coli pH425 rmtB; type: cell-based
Text: as §1

[20] = test system: A baum. AG227 APH(3′)-I armA; test: Activity against G1405-methylated 16S-rRNA, clinical isolate AG227; type: cell-based
Text: as §1

[21] = test system: Engineered E. coli pH424 armA; test: Activity against G1405-methylated 16S-rRNA, E. coli pH424 armA; type: cell-based
Text: as §1

[22] = test system: SZ380, Mycobacterium smegmatis; test: MIC reference strain SZ380; type: cell-based; conditions: Mycolicibacterium smegmatis, read-out: MIC SZ380 M. smegmatis
Text: as §1, §2, §3

[23] = test system: AG001 E. coli WT; test: Antibacterial activity, clinical isolate AG001; type: cell-based; parameters: unit not given here
Text: as §1, §2

[24] = test system: human mitochondrial ribosomes; test: in-vitro translation assay, human mitochondrial (human chimeric) ribosomes; type: biochemical
Text: (§4) IC50 values for bacterial, human chimeric, and rabbit reticulocyte ribosomes have been determined by in-vitro translation assays as described previously (Proc. Nat. Ac. Sci USA 2012, 109(27):10984-10989).
(§5) Minimal inhibitory concentrations (MICs, […]) against clinical isolates from Institute of Medical Microbiology, Univ. Zurich, and the IC50 values for bacterial, human mitochondrial and human cytosolic ribosomes are indicated.

[25] = test system: clinical isolates carrying AAC(3)-IV; test: MIC broth microdilution, AAC(3)-IV; type: cell-based; conditions: read-out: MIC AAC(3)-IV
Text: as §1, §5
(§6) Minimal inhibitory concentrations (μg/ml) against clinical isolates from Institute of Medical Microbiology, Univ. Zurich, and the IC50 values for bacterial, human mitochondrial and human cytosolic ribosomes are indicated.
(§7) The Minimal inhibitory concentrations (MICs, μg/ml) against clinical isolates from Institute of Medical Microbiology, Univ Zurich, and the IC50 values for bacterial, human mitochondrial and human cytosolic ribosomes are indicated.

[26] = test system: WT clinical isolates; test: MIC broth microdilution, WT; type: cell-based; conditions: read-out: MIC WT, clinical isolates, IMM Univ. Zurich; wild type
Text: as §1, §5, §6, §7

[27] = test system: bacterial ribosomes; test: in-vitro translation assay, bacterial ribosomes; type: biochemical
Text: as §4, §5

[28] = test system: AG173 E. coli AAC(3)-IV; test: Antibacterial activity, clinical isolate AG173; type: cell-based
Text: as §1, §2

[29] = test system: isolates carrying apmA; test: MIC broth microdilution, apmA; type: cell-based; conditions: apmA resistance gene
Text: as §1, with “2015.). […]” for “2015.).”
as §6, §7

[30] = test system: human cytosolic ribosomes; test: in-vitro translation assay, human cytosolic ribosomes; type: biochemical
Text: as §4, §5

[31] = test system: AG003 E. coli AAC(3)-II; test: Antibacterial activity, clinical isolate AG003; type: cell-based; parameters: unit not given here
Text: as §1, §2

[32] = test system: AG055 E. coli WT; test: Antibacterial activity, clinical isolate AG055; type: cell-based; parameters: unit not given here
Text: as §1, §2

[33] = ATCC25922, read-out: MIC AG212 E. coli
[34] = ATCC27853, read-out: MIC AG220 P. aeruginosa

Row | Compound | Antibacterial activity AG031 P. aer. APH(3′)-II [5] | Activity E. coli AG153 AAC(3)-II APH(3′)-II rmtB [6] | Antibacterial activity AG038 MRSA [10] | Activity E. coli pH430 WT [11] | MIC [12] [µg/mL] | Activity K. pneum. AG269 AAC(3)-II AAC(6′)-I rmtB [16] | Activity Enterob. AG302 AAC(3)-II AAC(6′)-I rmtC [18] | Activity A baum. AG227 APH(3′)-I armA [20] | Activity E. coli pH424 armA [21] | MIC [22] [µg/mL] | MIC [2, 33] [µg/mL] | MIC [3, 34] [µg/mL] | Antibacterial activity AG001 E. coli WT [23] | pIC50 [24] | MIC [7] [µg/mL] | MIC [9] [µg/mL] | MIC [15] [µg/mL] | MIC [25] [µg/mL] | pIC50 [27] | Antibacterial activity AG173 E. coli AAC(3)-IV [28] | other results
1 | NCC[C@H](O)C(=O)N[C@@H]1C[C@H](N)[C@@H](O[C@H]2O[C@H](CN)[C@@H](O)[C@H](O)[C@H]2O)[C@H](O)[C@H]1O[C@H]1O[C@H](CO)[C@@H](O)[C@H](N)[C@H]1O [AMK, amikacin, reference compound] | 4 | >256 | 4 | 1 | 2 (≈ 3.42 µM) | >256 | >256 | >256 | >128 | – | – | – | – | – | – | – | – | – | – | – | Antibacterial activity AG039 MRSA AAC(6′)-I ANT(4′)-I [1]: 2-4; MIC ([2]; reference strain ATCC25922, read-out: MIC AG212 E. coli): 2 µg/mL; MIC ([3]; ATCC27853, reference strain ATCC27853, read-out: MIC AG220 P. aeruginosa): 2 µg/mL; Antibacterial activity AG032 P. aer. APH(3′)-II [4]: 4; MIC ([7]; reference strain): 2 µg/mL; Antibacterial activity AG033 P. aer. APH(3′)-II AAC(6′)-I [8]: 64; MIC ([9]; reference strain): 1 µg/mL; Activity E. coli pH426 rmtC [13]: >128; Activity E. coli pH427 rmtF [14]: >128; MIC ([15]; reference strain): 1 µg/mL; Antibacterial activity AG042 MRSA AAC(6′)-I ANT(4′)-I APH(2′) [17]: 16-32; Activity E. coli pH425 rmtB [19]: >128
2 | CN[C@H]1C(O)C2O[C@H](O[C@@H]3C(N)C[C@@H](NC(=O)C(O)CCN)[C@@H](O)[C@H]3O)C(N)C[C@@H]2O[C@@H]1O[C@H]1OC(CO)[C@@H](N)[C@H](O)C1O (stereo partly shown) [DC191] | – | 4 | 4 | 2-4 | 2 (≈ 3.12 µM) | 2 | 2-4 | 4 | 2 | 0.5 | 2 | 4 | 8 | 4.01 | 8 | 1 to 2 | 2 | 4 to 8 (≈ 6.24 to 12.5 µM) | 6.70 | 4-8 | MIC [26]: 2 to 4 µg/mL (≈ 3.12 to 6.24 µM); MIC [29]: 8 µg/mL (≈ 12.5 µM); pIC50 [30]: 4.06
3 | CNC1C(O)C2O[C@H](O[C@@H]3C(N)C[C@@H](N)[C@@H](O)[C@H]3OCCCO)C(N)C[C@@H]2O[C@@H]1O[C@H]1OC(CO)[C@@H](N)[C@H](O)C1O (stereo partly shown) [DC207] | 128 | 8 | 32 | 8 | 8 (≈ 13.4 µM) | 8 | 8-16 | 16-32 | 4 | 1 | 16 | 64 | 16 | < 3.00 | 32 | 8 | 16 | > 128 | 6.22 | >128 | MIC [29]: > 128 µg/mL; pIC50 [30]: < 3.00
4 | CNC1C(O)C2O[C@H](O[C@@H]3C(N)C[C@@H](N)[C@@H](O)[C@H]3OCC(O)CO)C(N)C[C@@H]2O[C@@H]1O[C@H]1OC(CO)[C@@H](N)[C@H](O)C1O (stereo partly shown) [DC208] | 32 | 8 | 8-16 | 4-8 | 2 (≈ 3.26 µM) | 4 | 4 | 8 | 2 | 0.5 | 8 | 16 to 32 | 8 | 3.36 | 16 | 4 | 4 | 64 (≈ 104 µM) | 6.68 | >64 | MIC [26]: 4 to 8 µg/mL (≈ 6.52 to 13 µM); MIC [29]: > 128 µg/mL; pIC50 [30]: < 3.00
5 | gentamicin [reference compound] | 0.5 | >256 | 0.25-0.5 | 0.25 | – | >256 | >256 | >256 | >128 | – | – | – | 1 | – | – | – | – | – | – | – | Antibacterial activity AG039 MRSA AAC(6′)-I ANT(4′)-I [1]: 0.25-0.5; MIC AG212 E. coli ([2]; reference strain ATCC25922): 0.5 µg/mL; MIC AG220 P. aeruginosa ([3]; reference strain ATCC27853): 0.5 to 1 µg/mL; Antibacterial activity AG032 P. aer. APH(3′)-II [4]: 0.5; Antibacterial activity AG003 E. coli AAC(3)-II [31]: 32-64; MIC AG225 A. baumannii ([7]; reference strain): 0.5 to 1 µg/mL; Antibacterial activity AG033 P. aer. APH(3′)-II AAC(6′)-I [8]: 16; MIC AG215 K. pneumonia ([9]; reference strain): 0.25 µg/mL; MIC ATCC19977 M. abcessus ([12]; reference strain): 2 to 4 µg/mL; Activity E. coli pH426 rmtC [13]: >128; Activity E. coli pH427 rmtF [14]: >128; Antibacterial activity AG055 E. coli WT [32]: 0.5; MIC AG290 E. cloacae ([15]; reference strain): 0.25 µg/mL; Antibacterial activity AG042 MRSA AAC(6′)-I ANT(4′)-I APH(2′) [17]: 64; Activity E. coli pH425 rmtB [19]: >128
